inhibition, Tm and LogFC data for one molecule are collected here from ChEMBL document CHEMBL5058646 (2022).

Assay [1] concerns the target Histamine H2 receptor (Homo sapiens) (UniProt P25021). The following applies: Compound concentration 10.0 uM.
In assay [2] the target is MAP kinase-activated protein kinase 2 (Homo sapiens) (UniProt P49137). Briefly: MAPKAPK2 SGC Tm panel (DSF). The following applies: Compound concentration 20.0 uM.
Assay [3] deals with Casein kinase I isoform delta (Homo sapiens) (UniProt P48730). Briefly: CSNK1D SGC Tm panel (DSF). The following applies: Compound concentration 20.0 uM.
Assay [4] addresses Serine/threonine-protein kinase 26 (Homo sapiens) (UniProt Q9P289). Briefly: MST4 SGC Tm panel (DSF). Particulars: Compound concentration 20.0 uM.
Assay [5] concerns the target Serine/threonine-protein kinase haspin (Homo sapiens) (UniProt Q8TF76). Briefly: GSG2 SGC Tm panel (DSF). Particulars: Compound concentration 20.0 uM.
For assay [6], the target named is T1, Zinc finger and BTB domain-containing protein 2 (Homo sapiens) (UniProt Q8N680).
T1 sequence (whole entry): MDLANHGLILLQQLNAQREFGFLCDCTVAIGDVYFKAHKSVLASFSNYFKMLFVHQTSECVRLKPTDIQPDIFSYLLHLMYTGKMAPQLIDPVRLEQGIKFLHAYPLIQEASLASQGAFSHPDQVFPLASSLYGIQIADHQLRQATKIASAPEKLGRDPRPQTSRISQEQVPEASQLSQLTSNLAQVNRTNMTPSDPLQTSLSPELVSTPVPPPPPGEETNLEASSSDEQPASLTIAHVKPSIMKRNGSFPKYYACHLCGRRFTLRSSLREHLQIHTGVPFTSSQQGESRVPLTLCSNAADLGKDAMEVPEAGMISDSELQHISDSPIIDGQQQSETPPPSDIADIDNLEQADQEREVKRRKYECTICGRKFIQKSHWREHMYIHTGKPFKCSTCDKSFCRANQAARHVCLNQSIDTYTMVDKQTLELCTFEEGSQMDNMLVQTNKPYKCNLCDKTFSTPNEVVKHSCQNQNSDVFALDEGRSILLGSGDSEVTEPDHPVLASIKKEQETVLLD
Particulars: OCI-Ly1, Compound concentration 1.0 uM.

In assay [7] the target is Beta-3 adrenergic receptor (Homo sapiens, UniProt P13945). The following applies: Compound concentration 10.0 uM.
Assay [8] has as its target T2, Telomere zinc finger-associated protein (Homo sapiens) (UniProt P10074).
T2 sequence (whole entry): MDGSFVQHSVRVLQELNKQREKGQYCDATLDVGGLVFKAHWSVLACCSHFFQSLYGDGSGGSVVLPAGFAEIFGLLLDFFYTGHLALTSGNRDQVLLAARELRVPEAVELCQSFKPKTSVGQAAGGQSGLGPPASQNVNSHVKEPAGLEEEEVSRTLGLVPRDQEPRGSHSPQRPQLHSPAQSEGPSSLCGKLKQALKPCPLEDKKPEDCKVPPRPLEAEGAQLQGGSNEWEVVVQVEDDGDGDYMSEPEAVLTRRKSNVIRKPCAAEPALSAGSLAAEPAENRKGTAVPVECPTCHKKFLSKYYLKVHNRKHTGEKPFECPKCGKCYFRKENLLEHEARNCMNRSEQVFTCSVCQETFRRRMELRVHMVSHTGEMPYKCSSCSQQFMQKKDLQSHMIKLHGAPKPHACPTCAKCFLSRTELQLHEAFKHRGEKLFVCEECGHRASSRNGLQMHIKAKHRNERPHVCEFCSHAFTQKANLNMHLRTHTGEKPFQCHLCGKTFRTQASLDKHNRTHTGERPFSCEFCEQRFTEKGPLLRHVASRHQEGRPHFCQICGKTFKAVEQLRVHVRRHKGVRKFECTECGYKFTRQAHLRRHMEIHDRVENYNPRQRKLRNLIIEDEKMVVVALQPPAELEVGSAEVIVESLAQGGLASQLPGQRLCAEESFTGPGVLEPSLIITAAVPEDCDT
Particulars: SUD4, Compound concentration 1.0 uM.

In assay [9] the target is Protein archease (Homo sapiens) (UniProt Q8IWT0). The following applies: SUD4, Compound concentration 1.0 uM.
Assay [10] has as its target B-cell lymphoma 6 protein (Homo sapiens, UniProt P41182). Particulars: SUD4, Compound concentration 1.0 uM.
The target of assay [11] is D(2) dopamine receptor (Homo sapiens) (UniProt P14416). Particulars: Compound concentration 10.0 uM.
The target in assay [12] is Fibroblast growth factor receptor 1 (Homo sapiens) (UniProt P11362). Briefly: FGFR1 SGC Tm panel (DSF). Particulars: Compound concentration 20.0 uM.
The target of assay [13] is Dual specificity protein kinase CLK1 (Homo sapiens) (UniProt P49759). Briefly: CLK1 SGC Tm panel (DSF). Particulars: Compound concentration 20.0 uM.
Assay [14] concerns the target Zinc finger and BTB domain-containing protein 14 (Homo sapiens) (UniProt O43829). Particulars: SUD4, Compound concentration 1.0 uM.
The target in assay [15] is Serine/threonine-protein kinase 3 (Homo sapiens) (UniProt Q13188). Briefly: STK3 SGC Tm panel (DSF). The following applies: Compound concentration 20.0 uM.
The target of assay [16] is 5-hydroxytryptamine receptor 1D (Homo sapiens, UniProt P28221). Particulars: Compound concentration 10.0 uM.
Assay [17] has as its target Bromodomain-containing protein 4 (Homo sapiens) (UniProt O60885). Kind of assay: BRD4 SGC Tm panel (DSF). The following applies: Compound concentration 20.0 uM.
For assay [18], the target named is Cyclin-G-associated kinase (Homo sapiens) (UniProt O14976). Briefly: GAK SGC Tm panel (DSF). Particulars: Compound concentration 20.0 uM.
The target in assay [19] is Tyrosine-protein kinase Mer (Homo sapiens) (UniProt Q12866). Kind of assay: MERTK SGC Tm panel (DSF). Particulars: Compound concentration 20.0 uM.
The next assay addresses Myoneurin (Homo sapiens) (UniProt Q9NPC7). Particulars: SUD4, Compound concentration 1.0 uM.
In assay [20] the target is Serine/threonine-protein kinase 10 (Homo sapiens) (UniProt O94804). Briefly: STK10 SGC Tm panel (DSF). Particulars: Compound concentration 20.0 uM.
Assay [21] has as its target Cyclin-dependent kinase 2 (Homo sapiens) (UniProt P24941). Kind of assay: CDK2 SGC Tm panel (DSF). The following applies: Compound concentration 20.0 uM.

Each structure is given as a SMILES string.

Serine/threonine-protein kinase 3 (Homo sapiens), sequence (Q13188 whole entry): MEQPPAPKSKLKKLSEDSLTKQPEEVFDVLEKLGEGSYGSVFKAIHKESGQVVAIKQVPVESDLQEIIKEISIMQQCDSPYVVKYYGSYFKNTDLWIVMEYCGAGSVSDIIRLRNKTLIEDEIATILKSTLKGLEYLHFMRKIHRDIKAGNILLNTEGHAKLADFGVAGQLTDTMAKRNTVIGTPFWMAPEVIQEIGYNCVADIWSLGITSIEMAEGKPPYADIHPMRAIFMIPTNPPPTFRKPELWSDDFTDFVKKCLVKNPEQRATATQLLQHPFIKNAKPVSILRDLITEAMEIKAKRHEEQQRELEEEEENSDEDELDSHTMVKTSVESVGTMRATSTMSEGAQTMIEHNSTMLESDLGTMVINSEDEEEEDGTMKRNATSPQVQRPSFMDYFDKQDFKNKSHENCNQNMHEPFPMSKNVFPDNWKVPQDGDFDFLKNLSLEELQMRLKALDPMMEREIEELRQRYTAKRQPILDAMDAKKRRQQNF
Serine/threonine-protein kinase 10 (Homo sapiens), sequence (O94804 whole entry, looked up): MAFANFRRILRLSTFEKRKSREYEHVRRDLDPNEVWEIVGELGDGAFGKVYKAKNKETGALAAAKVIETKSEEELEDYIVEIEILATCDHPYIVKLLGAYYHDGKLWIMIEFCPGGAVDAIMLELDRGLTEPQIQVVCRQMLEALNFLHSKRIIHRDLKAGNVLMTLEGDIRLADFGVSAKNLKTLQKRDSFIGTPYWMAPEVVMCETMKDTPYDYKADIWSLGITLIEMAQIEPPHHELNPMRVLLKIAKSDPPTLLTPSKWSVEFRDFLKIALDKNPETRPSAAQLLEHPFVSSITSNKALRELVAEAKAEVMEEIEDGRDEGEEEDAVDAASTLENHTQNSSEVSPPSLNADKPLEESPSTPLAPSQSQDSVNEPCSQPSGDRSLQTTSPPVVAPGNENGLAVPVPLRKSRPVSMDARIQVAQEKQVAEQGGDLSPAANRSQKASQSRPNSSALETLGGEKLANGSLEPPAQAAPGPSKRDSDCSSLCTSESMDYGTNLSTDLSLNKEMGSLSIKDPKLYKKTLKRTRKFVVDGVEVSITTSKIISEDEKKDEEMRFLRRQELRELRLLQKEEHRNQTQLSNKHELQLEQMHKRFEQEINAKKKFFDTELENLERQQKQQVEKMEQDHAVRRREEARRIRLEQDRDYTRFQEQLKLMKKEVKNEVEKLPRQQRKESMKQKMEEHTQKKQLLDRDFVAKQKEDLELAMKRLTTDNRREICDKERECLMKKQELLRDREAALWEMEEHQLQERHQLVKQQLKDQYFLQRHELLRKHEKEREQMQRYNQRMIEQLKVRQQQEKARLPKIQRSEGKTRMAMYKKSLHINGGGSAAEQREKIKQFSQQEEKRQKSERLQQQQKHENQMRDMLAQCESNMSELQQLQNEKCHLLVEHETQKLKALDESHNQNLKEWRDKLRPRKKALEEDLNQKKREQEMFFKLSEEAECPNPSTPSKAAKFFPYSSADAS
Zinc finger and BTB domain-containing protein 14 (Homo sapiens), sequence (O43829 whole entry, the tested form may be a part): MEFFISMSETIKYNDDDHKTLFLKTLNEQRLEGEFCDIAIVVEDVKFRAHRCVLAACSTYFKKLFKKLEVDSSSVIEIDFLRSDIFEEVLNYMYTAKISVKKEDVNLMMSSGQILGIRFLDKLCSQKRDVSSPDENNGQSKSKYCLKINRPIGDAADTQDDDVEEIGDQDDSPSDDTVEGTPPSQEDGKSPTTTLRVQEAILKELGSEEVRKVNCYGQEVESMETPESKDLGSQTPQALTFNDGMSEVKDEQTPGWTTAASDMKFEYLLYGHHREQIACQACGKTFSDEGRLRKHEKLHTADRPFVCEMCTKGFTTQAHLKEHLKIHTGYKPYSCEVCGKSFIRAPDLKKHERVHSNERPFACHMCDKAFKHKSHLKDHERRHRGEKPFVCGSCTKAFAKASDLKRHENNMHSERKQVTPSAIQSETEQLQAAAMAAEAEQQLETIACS
Tyrosine-protein kinase Mer (Homo sapiens), sequence (Q12866 whole entry): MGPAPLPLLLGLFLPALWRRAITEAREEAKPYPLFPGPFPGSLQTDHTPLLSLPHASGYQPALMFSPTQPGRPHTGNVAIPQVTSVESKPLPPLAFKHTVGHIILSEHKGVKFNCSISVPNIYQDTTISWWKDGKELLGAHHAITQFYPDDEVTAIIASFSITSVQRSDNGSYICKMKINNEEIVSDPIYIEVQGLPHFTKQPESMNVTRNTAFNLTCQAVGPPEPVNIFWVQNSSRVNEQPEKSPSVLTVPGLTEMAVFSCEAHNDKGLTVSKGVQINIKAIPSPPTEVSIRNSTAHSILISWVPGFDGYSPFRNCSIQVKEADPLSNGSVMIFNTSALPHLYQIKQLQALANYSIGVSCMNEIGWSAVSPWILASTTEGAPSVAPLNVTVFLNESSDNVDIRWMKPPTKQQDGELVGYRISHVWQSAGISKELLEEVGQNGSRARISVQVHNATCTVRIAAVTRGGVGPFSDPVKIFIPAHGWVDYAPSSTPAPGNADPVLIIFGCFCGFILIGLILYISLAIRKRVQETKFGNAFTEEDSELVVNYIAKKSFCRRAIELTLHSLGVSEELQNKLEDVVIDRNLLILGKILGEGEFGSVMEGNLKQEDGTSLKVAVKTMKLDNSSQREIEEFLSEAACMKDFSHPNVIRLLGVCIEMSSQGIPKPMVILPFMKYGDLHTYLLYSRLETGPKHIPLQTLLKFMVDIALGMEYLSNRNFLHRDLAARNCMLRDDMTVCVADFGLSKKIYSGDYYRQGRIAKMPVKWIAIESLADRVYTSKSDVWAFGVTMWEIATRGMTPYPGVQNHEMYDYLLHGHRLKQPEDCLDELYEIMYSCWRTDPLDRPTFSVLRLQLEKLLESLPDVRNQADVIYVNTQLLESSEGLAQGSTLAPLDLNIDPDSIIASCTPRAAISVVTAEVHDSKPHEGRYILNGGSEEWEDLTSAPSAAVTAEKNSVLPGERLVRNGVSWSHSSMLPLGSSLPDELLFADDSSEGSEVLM
MAP kinase-activated protein kinase 2 (Homo sapiens), sequence (P49137 whole entry, looked up, canonical isoform): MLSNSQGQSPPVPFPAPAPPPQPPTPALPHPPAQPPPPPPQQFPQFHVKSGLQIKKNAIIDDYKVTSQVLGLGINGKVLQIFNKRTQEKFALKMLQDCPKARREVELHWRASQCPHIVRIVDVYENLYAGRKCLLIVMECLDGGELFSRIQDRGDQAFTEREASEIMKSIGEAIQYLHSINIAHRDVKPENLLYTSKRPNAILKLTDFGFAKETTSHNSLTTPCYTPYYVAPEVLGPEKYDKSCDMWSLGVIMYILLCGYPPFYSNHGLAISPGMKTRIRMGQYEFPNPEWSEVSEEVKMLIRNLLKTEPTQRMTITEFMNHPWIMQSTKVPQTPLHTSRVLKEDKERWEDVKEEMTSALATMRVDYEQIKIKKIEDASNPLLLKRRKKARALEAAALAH
Serine/threonine-protein kinase haspin (Homo sapiens), sequence (Q8TF76 whole entry, the tested form may be a part): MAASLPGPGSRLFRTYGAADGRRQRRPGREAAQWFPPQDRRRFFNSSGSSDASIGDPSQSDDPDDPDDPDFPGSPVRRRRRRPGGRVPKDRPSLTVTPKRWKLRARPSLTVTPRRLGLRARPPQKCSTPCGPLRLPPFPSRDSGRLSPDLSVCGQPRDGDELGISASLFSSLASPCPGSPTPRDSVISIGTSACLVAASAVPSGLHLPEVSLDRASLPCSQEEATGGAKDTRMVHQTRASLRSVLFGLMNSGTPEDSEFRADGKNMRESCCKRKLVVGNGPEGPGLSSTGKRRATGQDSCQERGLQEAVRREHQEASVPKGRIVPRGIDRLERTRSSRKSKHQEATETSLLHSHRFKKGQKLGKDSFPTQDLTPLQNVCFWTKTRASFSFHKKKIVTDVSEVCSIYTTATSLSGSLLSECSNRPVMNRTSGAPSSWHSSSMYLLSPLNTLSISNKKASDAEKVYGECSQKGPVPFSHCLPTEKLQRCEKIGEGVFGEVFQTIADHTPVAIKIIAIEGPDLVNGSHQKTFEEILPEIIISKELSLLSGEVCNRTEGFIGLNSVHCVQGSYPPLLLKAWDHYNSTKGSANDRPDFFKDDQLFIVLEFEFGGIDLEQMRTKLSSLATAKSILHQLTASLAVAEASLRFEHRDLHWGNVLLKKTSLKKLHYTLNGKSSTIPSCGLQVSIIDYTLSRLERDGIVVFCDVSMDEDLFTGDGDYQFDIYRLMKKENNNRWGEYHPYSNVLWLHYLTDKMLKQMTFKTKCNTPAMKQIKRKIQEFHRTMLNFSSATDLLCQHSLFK
Histamine H2 receptor (Homo sapiens), sequence (P25021 whole entry): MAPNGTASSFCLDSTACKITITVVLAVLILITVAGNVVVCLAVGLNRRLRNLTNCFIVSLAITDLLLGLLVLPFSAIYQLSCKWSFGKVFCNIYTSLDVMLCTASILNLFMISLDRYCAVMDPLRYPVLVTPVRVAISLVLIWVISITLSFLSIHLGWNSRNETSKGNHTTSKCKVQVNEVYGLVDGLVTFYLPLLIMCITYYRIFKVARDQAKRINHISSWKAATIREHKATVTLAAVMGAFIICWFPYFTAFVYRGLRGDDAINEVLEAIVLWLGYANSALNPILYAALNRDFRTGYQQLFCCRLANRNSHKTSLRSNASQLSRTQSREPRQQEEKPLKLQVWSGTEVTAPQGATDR
Beta-3 adrenergic receptor, sequence (P13945 whole entry, looked up): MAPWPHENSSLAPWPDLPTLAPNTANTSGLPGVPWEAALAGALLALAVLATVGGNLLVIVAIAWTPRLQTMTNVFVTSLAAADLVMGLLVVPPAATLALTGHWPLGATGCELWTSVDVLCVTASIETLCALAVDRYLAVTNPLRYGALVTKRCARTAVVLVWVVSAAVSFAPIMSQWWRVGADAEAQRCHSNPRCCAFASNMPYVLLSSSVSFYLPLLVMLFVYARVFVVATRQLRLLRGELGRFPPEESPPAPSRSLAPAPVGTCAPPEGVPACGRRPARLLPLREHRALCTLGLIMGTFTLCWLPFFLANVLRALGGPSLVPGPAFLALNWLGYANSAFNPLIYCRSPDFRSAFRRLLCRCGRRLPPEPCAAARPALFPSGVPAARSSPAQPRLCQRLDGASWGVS

As to `C[C@@H]1CN(c2ncc(Cl)c(Nc3ccc4c(c3)n(CCC(C)(C)O)c(=O)n4C)n2)C[C@H](C)C1(F)F`, the inhibition is 43.7% in [1], 65.3% in assay [7], 20.8% in assay [11] and 56.5% in assay [16]. For the same molecule, the Tm in [2] is 46 °C; in [3] it was 52 °C; in assay [4], 44 °C; in [5], 45 °C; in [12] it was 50 °C; in [13], 36 °C. In addition, the Tm in assay [15] is 47 °C; in assay [17] it was 44 °C; in assay [18] it was 52 °C; in [19], 47 °C; in assay [20], 42 °C; in [21], 46 °C. The LogFC in assay [6] is 0.239; in assay [8] it was 0.0324; in assay [9] it was 0.0264; in assay [10], -1.13; in assay [14], 0.0306; at Myoneurin (Homo sapiens) it was -0.135.
